Laboratory results taken from ChEMBL document CHEMBL3046732, “Synthesis and biological evaluation of new [1,3,4]thiadiazepino[7,6-b]quinolin-2-amines as potent anti-microbial agents” (2013).

Tests used:
Streptococcus pyogenes = assay: Antimicrobial activity against Streptococcus pyogenes assessed as growth inhibition by microdilution method
Alternaria alternata = assay: Antimicrobial activity against Alternaria alternata assessed as growth inhibition by microdilution method; assay type: functional
Escherichia coli = assay: Antimicrobial activity against Escherichia coli assessed as growth inhibition by microdilution method
Klebsiella aerogenes = assay: Antimicrobial activity against Enterobacter aerogenes assessed as growth inhibition by microdilution method
Staphylococcus aureus = assay: Antimicrobial activity against Staphylococcus aureus assessed as growth inhibition by microdilution method
Aspergillus flavus = assay: Antimicrobial activity against Aspergillus flavus assessed as growth inhibition by microdilution method; assay type: functional
Aspergillus niger = assay: Antimicrobial activity against Aspergillus niger assessed as growth inhibition by microdilution method; assay type: functional
Salmonella typhimurium = assay: Antimicrobial activity against Salmonella enterica subsp. enterica serovar Typhimurium assessed as growth inhibition by microdilution method
Curvularia australiensis = assay: Antimicrobial activity against Curvularia australiensis assessed as growth inhibition by microdilution method; assay type: functional
Trichoderma reesei = assay: Antimicrobial activity against Trichoderma reesei assessed as growth inhibition by microdilution method; assay type: functional
Bacillus subtilis = assay: Antimicrobial activity against Bacillus subtilis assessed as growth inhibition by microdilution method

Structure (SMILES) | MIC (Streptococcus pyogenes) | MIC (Alternaria alternata) | MIC (Escherichia coli) | MIC (Klebsiella aerogenes) | MIC (Staphylococcus aureus) | MIC (Aspergillus flavus) | MIC (Aspergillus niger) | MIC (Salmonella typhimurium) | MIC (Curvularia australiensis) | MIC (Trichoderma reesei) | MIC (Bacillus subtilis)
COc1ccc2nc3c(cc2c1)C=NN=C(Nc1ccccc1C)S3 | 1000 µg/mL | 1000 µg/mL | 500 µg/mL | 1000 µg/mL | 1000 µg/mL | 500 µg/mL | 1000 µg/mL | 125 µg/mL | 1000 µg/mL | 500 µg/mL | 1000 µg/mL
O=C(N[C@H](CO)[C@H](O)c1ccc([N+](=O)[O-])cc1)C(Cl)Cl [CHLORAMPHENICOL] | 1000 µg/mL |  | 1000 µg/mL | 1000 µg/mL | 1000 µg/mL |  |  | 1000 µg/mL |  |  | 1000 µg/mL
Cc1cccc2cc3c(nc12)SC(Nc1ccccc1Cl)=NN=C3 | > 1000 µg/mL | 1000 µg/mL | > 1000 µg/mL | > 1000 µg/mL | > 1000 µg/mL | 1000 µg/mL | > 1000 µg/mL | > 1000 µg/mL | 500 µg/mL | 1000 µg/mL | > 1000 µg/mL
Cc1cccc(C)c1NC1=NN=Cc2cc3cccc(C)c3nc2S1 | 1000 µg/mL | 500 µg/mL | 1000 µg/mL | 1000 µg/mL | 1000 µg/mL | 500 µg/mL | 1000 µg/mL | 1000 µg/mL | 1000 µg/mL | 250 µg/mL | 1000 µg/mL
Cc1ccc2nc3c(cc2c1)C=NN=C(Nc1cccc(F)c1)S3 | > 1000 µg/mL | 500 µg/mL | > 1000 µg/mL | > 1000 µg/mL | > 1000 µg/mL | 1000 µg/mL | 1000 µg/mL | > 1000 µg/mL | > 1000 µg/mL | 1000 µg/mL | > 1000 µg/mL
Cc1c(Cl)ccc2cc3c(nc12)SC(Nc1ccc(Cl)cc1)=NN=C3 | 500 µg/mL | 250 µg/mL | 500 µg/mL | 500 µg/mL | 1000 µg/mL | 1000 µg/mL | 500 µg/mL | 1000 µg/mL | 500 µg/mL | 125 µg/mL | 60 µg/mL
COc1ccc2nc3c(cc2c1)C=NN=C(Nc1ccc(Cl)cc1)S3 | 500 µg/mL | 30 µg/mL | 250 µg/mL | 500 µg/mL | 500 µg/mL | 500 µg/mL | 500 µg/mL | 1000 µg/mL | 500 µg/mL | 250 µg/mL | 60 µg/mL
CCc1ccc(NC2=NN=Cc3cc4ccc(Cl)c(C)c4nc3S2)cc1 | 500 µg/mL | 1000 µg/mL | 1000 µg/mL | 1000 µg/mL | 1000 µg/mL | > 1000 µg/mL | 1000 µg/mL | 1000 µg/mL | > 1000 µg/mL | 1000 µg/mL | 125 µg/mL
Cc1cccc2cc3c(nc12)SC(NCc1ccccc1)=NN=C3 | > 1000 µg/mL | 1000 µg/mL | > 1000 µg/mL | 1000 µg/mL | > 1000 µg/mL | 1000 µg/mL | 500 µg/mL | > 1000 µg/mL | 1000 µg/mL | 1000 µg/mL | > 1000 µg/mL
Cc1c(Cl)ccc2cc3c(nc12)SC(NCc1ccccc1)=NN=C3 | 1000 µg/mL | 500 µg/mL | 1000 µg/mL | 500 µg/mL | 1000 µg/mL | 500 µg/mL | 500 µg/mL | 60 µg/mL | 500 µg/mL | 500 µg/mL | 60 µg/mL
Cc1ccc2nc3c(cc2c1)C=NN=C(Nc1ccccc1Cl)S3 | 500 µg/mL | 1000 µg/mL | 500 µg/mL | 60 µg/mL | 1000 µg/mL | 500 µg/mL | > 1000 µg/mL | 1000 µg/mL | 1000 µg/mL | 1000 µg/mL | 1000 µg/mL
Cc1cccc2cc3c(nc12)SC(Nc1ccccc1F)=NN=C3 | 1000 µg/mL | 1000 µg/mL | 500 µg/mL | 500 µg/mL | 1000 µg/mL | 1000 µg/mL | > 1000 µg/mL | 250 µg/mL | 1000 µg/mL | 1000 µg/mL | 500 µg/mL
Cc1ccc2nc3c(cc2c1)C=NN=C(Nc1c(C)cccc1C)S3 | 1000 µg/mL | 500 µg/mL | 1000 µg/mL | 1000 µg/mL | 1000 µg/mL | 1000 µg/mL | 1000 µg/mL | 1000 µg/mL | 1000 µg/mL | 250 µg/mL | 1000 µg/mL
Cc1cccc2cc3c(nc12)SC(Nc1ccc(Cl)cc1)=NN=C3 | 1000 µg/mL | 500 µg/mL | 1000 µg/mL | 1000 µg/mL | 1000 µg/mL | 250 µg/mL | 1000 µg/mL | 1000 µg/mL | 500 µg/mL | 1000 µg/mL | 1000 µg/mL

Now from value to compound:

MIC (Streptococcus pyogenes) | MIC (Alternaria alternata) | MIC (Escherichia coli) | MIC (Klebsiella aerogenes) | MIC (Staphylococcus aureus) | MIC (Aspergillus flavus) | MIC (Aspergillus niger) | MIC (Salmonella typhimurium) | MIC (Curvularia australiensis) | MIC (Trichoderma reesei) | MIC (Bacillus subtilis) | Structure (SMILES)
500 µg/mL | 1000 µg/mL | 1000 µg/mL | 500 µg/mL | 500 µg/mL | 125 µg/mL | 250 µg/mL | 1000 µg/mL | 1000 µg/mL | 125 µg/mL | 500 µg/mL | Cc1ccc2nc3c(cc2c1)C=NN=C(Nc1ccccc1C)S3
500 µg/mL | 500 µg/mL | 500 µg/mL | 1000 µg/mL | 500 µg/mL | 1000 µg/mL | 500 µg/mL | 1000 µg/mL | 500 µg/mL | 500 µg/mL | 250 µg/mL | CCc1ccc(NC2=NN=Cc3cc4cccc(C)c4nc3S2)cc1
500 µg/mL | 500 µg/mL | 500 µg/mL | 500 µg/mL | 500 µg/mL | 500 µg/mL | 500 µg/mL | 500 µg/mL | 1000 µg/mL | 500 µg/mL | 500 µg/mL | CCc1ccc(NC2=NN=Cc3cc4cc(OC)ccc4nc3S2)cc1
500 µg/mL | 60 µg/mL | 500 µg/mL | 500 µg/mL | 500 µg/mL | 500 µg/mL | 500 µg/mL | 500 µg/mL | 250 µg/mL | 60 µg/mL | 500 µg/mL | Cc1c(Cl)ccc2cc3c(nc12)SC(Nc1ccccc1Cl)=NN=C3
500 µg/mL | 60 µg/mL | 500 µg/mL | 60 µg/mL | 500 µg/mL | > 1000 µg/mL | 1000 µg/mL | 250 µg/mL | 1000 µg/mL | 500 µg/mL | 500 µg/mL | COc1ccc2nc3c(cc2c1)C=NN=C(Nc1ccc(F)cc1)S3
30 µg/mL | 60 µg/mL | 30 µg/mL | 250 µg/mL | 500 µg/mL | 500 µg/mL | 500 µg/mL | 500 µg/mL | 500 µg/mL | 500 µg/mL | 60 µg/mL | COc1ccc2nc3c(cc2c1)C=NN=C(Nc1cccc(Cl)c1)S3
500 µg/mL | 500 µg/mL | 500 µg/mL | 500 µg/mL | 500 µg/mL | 500 µg/mL | 1000 µg/mL | 1000 µg/mL | 500 µg/mL | 1000 µg/mL | 60 µg/mL | COc1ccc2nc3c(cc2c1)C=NN=C(Nc1cccc(F)c1)S3
500 µg/mL | 500 µg/mL | 500 µg/mL | 500 µg/mL | 500 µg/mL | 500 µg/mL | 1000 µg/mL | 500 µg/mL | 500 µg/mL | 125 µg/mL | 500 µg/mL | Cc1ccc(NC2=NN=Cc3cc4cc(C)ccc4nc3S2)c(C)c1
60 µg/mL | 250 µg/mL | 500 µg/mL | 1000 µg/mL | 1000 µg/mL | 500 µg/mL | 500 µg/mL | 1000 µg/mL | 500 µg/mL | 250 µg/mL | 125 µg/mL | Cc1c(Cl)ccc2cc3c(nc12)SC(Nc1ccc(F)cc1)=NN=C3
60 µg/mL | 125 µg/mL | 125 µg/mL | 500 µg/mL | 500 µg/mL | 500 µg/mL | 500 µg/mL | 1000 µg/mL | 500 µg/mL | 250 µg/mL | 60 µg/mL | Cc1cccc(C)c1NC1=NN=Cc2cc3ccc(Cl)c(C)c3nc2S1
60 µg/mL | 250 µg/mL | 60 µg/mL | 60 µg/mL | > 1000 µg/mL | 500 µg/mL | 1000 µg/mL | > 1000 µg/mL | 1000 µg/mL | 250 µg/mL | 125 µg/mL | Cc1c(Cl)ccc2cc3c(nc12)SC(Nc1ccccc1)=NN=C3
60 µg/mL | 500 µg/mL | 500 µg/mL | 125 µg/mL | 500 µg/mL | 500 µg/mL | 500 µg/mL | 60 µg/mL | 500 µg/mL | 1000 µg/mL | 500 µg/mL | COc1ccc2nc3c(cc2c1)C=NN=C(Nc1ccccc1)S3
250 µg/mL | 500 µg/mL | 250 µg/mL | 500 µg/mL | 250 µg/mL | 1000 µg/mL | 1000 µg/mL | 500 µg/mL | 1000 µg/mL | 500 µg/mL | 500 µg/mL | Cc1cccc2cc3c(nc12)SC(Nc1ccc(F)cc1)=NN=C3
250 µg/mL | 500 µg/mL | 250 µg/mL | 500 µg/mL | 500 µg/mL | 1000 µg/mL | 1000 µg/mL | 500 µg/mL | 1000 µg/mL | 250 µg/mL | 125 µg/mL | Cc1ccc(NC2=NN=Cc3cc4ccc(Cl)c(C)c4nc3S2)cc1
250 µg/mL | 250 µg/mL | 250 µg/mL | 250 µg/mL | 500 µg/mL | 1000 µg/mL | 500 µg/mL | 500 µg/mL | 500 µg/mL | 60 µg/mL | 60 µg/mL | Cc1ccccc1NC1=NN=Cc2cc3ccc(Cl)c(C)c3nc2S1
